Values quoted from earlier work in US10206949B2, “Composition that relieves heartburn, GERD and hangovers” (priority 2015, dated 2019).

[1] = patients with acute renal or cardiac failure

CNC(=C[N+](=O)[O-])NCCSCc1ccc(CN(C)C)o1 [ranitidine, N-(2-[(5-[(dimethylamino)methyl]furan-2-yl)methylthio]ethyl)-N′-methyl-2-nitroethene-1,1-diamine]
false positives for methamphetamine on drug tests (in vivo): known to give false positives | fungal sepsis (patients on ranitidine): observed in some patients | mucosal perfusion [1]: decrease mucosal perfusion | risk of death [1]: increases their risk of death
